Publication PMC4599007, “The GH130 Family of Mannoside Phosphorylases Contains Glycoside Hydrolases That Target β-1,2-Mannosidic Linkages in Candida Mannan” (The Journal of Biological Chemistry, 2015)

Target: T1, BT3780 (Bacteroides thetaiotaomicron, UniProt Q8A186)
T1 construct: gene BT_3780; signal peptide residues 1-16; residues 17-384 built in crystal (C-terminal Pro printed as 383); monomer
T1 sequence (Q8A186 17-383): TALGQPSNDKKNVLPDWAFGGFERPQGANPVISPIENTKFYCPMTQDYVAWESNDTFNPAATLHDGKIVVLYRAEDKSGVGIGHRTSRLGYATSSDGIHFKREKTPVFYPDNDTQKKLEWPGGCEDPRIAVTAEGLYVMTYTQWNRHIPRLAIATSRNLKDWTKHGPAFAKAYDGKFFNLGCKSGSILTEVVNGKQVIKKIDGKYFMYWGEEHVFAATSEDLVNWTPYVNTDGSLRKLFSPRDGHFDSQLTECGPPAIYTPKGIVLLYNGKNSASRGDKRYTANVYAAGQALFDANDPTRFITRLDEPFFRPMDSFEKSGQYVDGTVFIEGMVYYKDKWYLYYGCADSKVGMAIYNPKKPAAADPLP
Experiment: X-ray crystal structure, […] Å
Type: binding
Details: 0.3 M mannose in crystallisation; bound in -1 and +1 subsites of the active site

## OC[C@H]1OC(O)[C@@H](O)[C@@H](O)[C@@H]1O (stereo partly shown) [mannose]
  X-ray crystal structure, 1.35 Å: The pocket houses two mannose residues (the crystal structure of BT3780 was obtained in the presence
